PubChem BioAssay (NCI)
Several values for one entry are separate records, joined by “and”; a condition that tells them apart may be missing. Equal entries are not always repeated.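 These data come from cells grown in 96-well plates and exposed to compound for 48 hours at five concentrations. At the GI50, growth is halved. At the TGI there is no net growth.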

What was measured:
Test in all cases: NCI tumour cell line growth inhibition, 48 h
MDA-N = tested on: MDA-N
DMS 114 small cell lung = tested on: DMS 114 small cell lung
HOP-18 NSCLC = tested on: HOP-18 NSCLC
P388/ADR leukemia = tested on: P388/ADR leukemia
SNB-78 CNS = tested on: SNB-78 CNS
P388 leukemia = tested on: P388 leukemia
DMS 273 small cell lung = tested on: DMS 273 small cell lung
SN12K1 renal = tested on: SN12K1 renal
KM20L2 colon = tested on: KM20L2 colon
RXF-631 renal = tested on: RXF-631 renal
LXFL 529 NSCLC = tested on: LXFL 529 NSCLC
XF 498 CNS = tested on: XF 498 CNS

Row | Compound | TGI (MDA-N) | TGI (DMS 114 small cell lung) | TGI (HOP-18 NSCLC) [µM] | TGI (SNB-78 CNS) [µM] | TGI (DMS 273 small cell lung) | TGI (KM20L2 colon) [µM] | TGI (RXF-631 renal) [µM] | TGI (LXFL 529 NSCLC) | TGI (XF 498 CNS) | also measured
1 | Cc1cc(N)c2ccccc2[n+]1CCCCCCCCCC[n+]1c(C)cc(N)c2ccccc21 | 6.08 µM and 6.72 µM |  |  |  |  |  |  |  |  | GI50 (MDA-N): 2.13 µM
2 | C=C(C)[C@]12CC(C)C34OC(/C=C\C=C\CCCCCCCCC)(O[C@@H]1[C@@H]3[C@@H]1O[C@]1(CO)[C@@H](O)[C@]1(O)C(=O)C(C)=C[C@@H]41)O2 (stereo partly drawn) | 19 µM |  |  |  |  |  |  |  |  | GI50 (MDA-N): 0.000167 µM
3 | O=C(CC(C(=O)O)N1CCOCC1)c1ccccc1 (stereo not drawn) | 36.8 µM |  |  |  |  |  |  |  |  | 
4 | Nc1ccc2c(c1)CN1C(=O)c3ccccc3C1=N2 | > 125 µM | > 125 µM | > 125 | > 79.4 | > 125 µM | > 125 |  |  |  | TGI (P388/ADR leukemia): > 125 µM; TGI (P388 leukemia): > 125 µM; TGI (SN12K1 renal): > 72.4 µM
5 | O=C1CC2Sc3ccccc3N=C2N1c1ccc(Cl)cc1Cl (stereo not drawn) |  | > 100 µM | > 100 | > 100 |  | > 100 | > 100 | > 100 µM | > 100 µM | 
6 | CC(C)=C1CCC(CN2CCCC2)C1=O (stereo not drawn) |  | 37 µM | 32.7 | > 100 | > 100 µM | > 100 | > 100 | 32.2 µM | 34 µM | 
7 | Cc1cccc(N2C(=O)/C(=C/c3ccc(N(CCC#N)CCC#N)cc3C)N=C2c2cc([N+](=O)[O-])ccc2Cl)c1 |  | > 100 µM | > 100 |  | > 100 µM |  | > 100 | > 100 µM |  | 
8 | COc1cc2c(cc1OC)[C@H]1C(=O)c3cc4c(cc3[C@H]1N(C)C2=O)OCO4 | > 100 µM |  |  |  |  |  |  |  |  | 
9 | O=C(OCc1nc2ccc(Br)cc2c(=O)n1-c1ccccc1)c1ccccc1O |  |  |  | > 100 |  | > 100 |  | > 100 µM | > 100 µM | 
10 | CCOC(=O)NNC(=O)NC12CC3CC(CC(C3)C1)C2 |  | > 100 µM | > 100 | > 100 | > 100 µM | > 100 |  | > 100 µM | > 100 µM | 
11 | CCOC(=N)CC(=O)NC(C)c1ccccc1 (stereo not drawn) |  |  | > 100 | > 100 | > 100 µM | > 100 | > 100 | > 100 µM | > 100 µM | 
12 | O=C1/C(=C/c2ccccc2)CN(C(=O)OCC(Cl)(Cl)Cl)C/C1=C\c1ccccc1 |  | 4.08 µM | 9.82 | 5.92 | 3.27 µM | 7.68 |  | 3.94 µM |  | 
13 | N#CC1(C#N)C2C=CC(C3CCC=C32)C1(C#N)C#N (stereo not drawn) | > 10 µM |  |  |  |  |  |  |  |  | 
14 | Cc1cccc(CC(C)(C)C)c1NC(=O)C(=O)C(C(=O)c1ccc2ccccc2c1)C1OC(=O)c2ccccc21 (stereo not drawn) |  | 56.7 µM |  | > 100 |  |  |  |  |  | 
15 | CN1CC(C(=O)NC2(C)OC3(O)C4CCCN4C(=O)C(Cc4ccccc4)N3C2=O)C=C2c3cccc4[nH]cc(c34)CC21 (stereo not drawn) | 55.1 µM |  |  |  |  |  |  |  |  | 
16 | Cc1[nH]c(=O)nc(N/N=C/c2ccc(O)cc2)c1C(=O)Nc1ccc(Cl)cc1 |  | > 100 µM | > 100 | > 100 | > 100 µM | > 100 | > 100 | > 100 µM |  | 
17 | CC(C)(C)NCCC(O)c1cc(C(F)(F)F)nc2c(C(F)(F)F)cccc12 (stereo not drawn) | 24 µM |  |  |  |  |  |  |  |  | 

Row | Compound | TGI (MDA-N) | TGI (DMS 114 small cell lung) | TGI (HOP-18 NSCLC) [µM] | TGI (SNB-78 CNS) [µM] | TGI (DMS 273 small cell lung) | TGI (KM20L2 colon) [µM] | TGI (RXF-631 renal) [µM] | TGI (LXFL 529 NSCLC) | TGI (XF 498 CNS) | also measured
18 | CCN1CC2(C)CC[C@@H](OC)C34[C@@H]2[C@H](OC(C)=O)C2(OCO[C@@]25C[C@H](OC)C2C[C@]3(O)[C@@H]5[C@H]2O)[C@H]14 |  | > 100 µM |  | > 100 |  | > 100 |  | > 100 µM |  | 
19 | O=C1c2ccccc2C(=O)c2c1ccc1c3ccccc3n(Cc3ccccc3)c21 |  | > 100 µM | 0.0908 |  |  |  |  | > 100 µM | > 100 µM | 
20 | CCC1NCC(=O)c2c1[nH]c1ccccc21 (stereo not drawn) |  | > 100 µM | > 100 | > 100 | > 100 µM | > 100 |  | > 100 µM |  | 
21 | CC(=O)Nc1ccc(C(=O)N2N=C(C)/C(=C/c3cccc(O)c3)C2=O)cc1 |  | > 100 µM |  |  | > 100 µM |  |  |  | > 100 µM | 
22 | COC(=O)C1CCC(=NC2c3ccccc3-c3ccccc32)N1 (stereo not drawn) |  | > 100 µM | > 100 | > 100 | > 100 µM | > 100 | > 100 | > 100 µM | > 100 µM | 
23 | COC(=O)C(=O)C(C(=O)C(=O)Nc1ccccc1C(N)=O)c1nc2ccc(C(=O)c3ccccc3)cc2[nH]c1=O (stereo not drawn) |  | > 100 µM | > 100 | > 100 | > 100 µM | > 100 | > 100 | > 100 µM | > 100 µM | 
24 | O=C(Cc1nc2ccc([N+](=O)[O-])cc2[nH]c1=O)C(=O)Nc1cc(Cl)c(Cl)cc1Cl | > 100 µM |  |  |  |  |  |  |  |  | 
25 | C/C(=N\NC(=S)N1CCC(C2CCN(C(=S)N/N=C(\C)c3ccccn3)CC2)CC1)c1ccccn1 |  |  | > 100 | > 100 | > 100 µM | > 100 | > 100 | > 100 µM | 86.5 µM | 
26 | Clc1ccccc1C1=NN(c2ccccc2)C2c3cc(Br)ccc3OCC12 (stereo not drawn) |  | > 100 µM | > 100 | > 100 | > 100 µM | > 100 |  | > 100 µM | > 100 µM | 
27 | CCCCCCCCC(=O)NCCCNCCCNC(=O)CCCCCCCC |  | 8.79 µM | 26.6 | 26 | 6.03 µM | 6.31 |  | 7.79 µM | 9.22 µM | 
28 | O=C1/C(=C/c2ccccc2)CN(C(=O)Oc2ccc([N+](=O)[O-])cc2)C/C1=C\c1ccccc1 |  | 4.63 µM and 3.84 µM |  | 28.5 | 2.94 µM and 3.17 µM | 8.2 |  | 5.41 µM and 2.9 µM |  | GI50 (DMS 114 small cell lung): 1.68 µM; GI50 (DMS 273 small cell lung): 1.22 µM; GI50 (LXFL 529 NSCLC): 1.41 µM; GI50 (KM20L2 colon): 3.9 µM
29 | O=C1c2cccc3cccc(c23)C(=O)N1CCCN1CCN(CCCN2C(=O)c3cccc4cccc(c34)C2=O)CC1 |  | > 100 µM | > 100 | > 100 | > 100 µM | > 100 | > 100 | > 100 µM | > 100 µM | 
30 | Cc1c(-c2coc(-c3ccc(Cl)cc3)n2)c(=O)n(-c2ccccc2)n1C |  |  |  | > 100 | > 100 µM | > 100 |  | > 100 µM | > 100 µM | 
31 | Cc1nc(C(N)=S)sc1C(=O)CC(=O)C(=O)Nc1cccc(Cl)c1C | > 100 µM |  |  |  |  |  |  |  |  | 
32 | COc1ccccc1NC(=O)C(=O)C1C(=O)Nc2ccccc2S1=O (stereo not drawn) |  | > 100 µM | > 100 | > 100 | > 100 µM | > 100 | > 100 | > 100 µM | > 100 µM | 
33 | COc1cc(C2c3cc4c(cc3[C@@H](Nc3cccc(O)c3)C3COC(=O)[C@H]23)OCO4)cc(OC)c1O (stereo partly drawn) | 20.5 µM | 5.21 µM | 33 | 65.1 | 6 µM | 17.6 |  | 24.9 µM | 0.985 µM and 8.34 µM | GI50 (DMS 114 small cell lung): 0.49 µM; TGI (P388/ADR leukemia): 1.65 µM; GI50 (SNB-78 CNS): 0.906 µM; TGI (P388 leukemia): 0.507 µM; GI50 (DMS 273 small cell lung): 0.404 µM; TGI (SN12K1 renal): 7.81 µM; GI50 (LXFL 529 NSCLC): 0.85 µM; GI50 (XF 498 CNS): 0.52 µM
